# Laboratory results: patent US20160039852A1, “THERAPEUTIC USES OF BISPHOSPHONATES” (THE UNIVERSITY OF SHEFFIELD, priority 2013, published 2016)
# Experiments:
# [1] = test system: murine and human cancer lines (PC3, 178-2 BMA, MDA-MB231, 5TGM1, 5T33); assay: γH2AX foci in cancer lines following irradiation; format: cell-based; conditions: irradiation (1Gy), Zol, 0, 4, 12, 24 and 48 h post irradiation
# Description: (C-H) Number of γH2AX foci enumerated in (C) hMSC, (D) PC3, (E) 178-2 BMA, (F) MDA-MB231,
# (G) 5TGM1 and (H) 5T33 lines following irradiation (1Gy) in the presence or absence of Zol ([…]) and assessed at 0, 4, 12, 24 and 48 h post irradiation (n=3).
# Human prostate cancer cell line PC3 cells were maintained in DMEM with Glutamax (Gibco) containing 10% FBS (Sigma), 1% penicillin (100units/ml)/streptomycin (100 μg/ml) (Sigma). Mouse prostate cancer cell line 178-2 BMA was cultured as described above with the addition of 0.1 mM 4-(2-hydroxyethyl)-1-piperazineethanesulfonic acid (Life Technologies, Gaithersburg, USA) and 0.01 mM sodium pyruvate (PAA Laboratories). Human breast cancer cell line MDA-MB-231 was cultured in RPMI 1640 with Glutamax supplemented with 10% FBS (Sigma), 0.01 mM sodium pyruvate (PAA laboratories) and penicillin (1 units/ml) and streptomycin (1 μg/ml) (Sigma). […]
# DNA damage was induced by exposing hMSC to ^137Cs Gamma source. […] Five to seven fields consisting of 25 cells in total were randomly selected from a tile scan (20×) and individual cells viewed at 63× were then scored for γH2AX DNA damage foci using ImageJ 1.45 software (http://rsbweb.nih.gov/ij/).
# [2] = test system: zebrafish embryo caudal fin; assay: Zebrafish tail amputation and regeneration following irradiation; format: in vivo, Zebrafish (Danio Rerio H)
# Description: Embryos from wild-type Zebrafish (Danio Rerio H) AB strain were collected at 16 cell stage (˜1.5 hours post fertilisation (hpf)) and grown in E3 Medium at 28° C. Embryos were treated with Zoledronate (1 μM) and/or FOH, GGOH at 24 hpf. DNA damage was induced by exposure to ^137Cs Gamma source at 48 hpf and after irradiation the embryo tails were amputated and the embryos were then incubated at 28° C. for a further 12 hrs in the presence of the chemicals. At the end of this period the chemicals were washed off and the embryos were incubated in fresh medium with no chemicals. The embryos were grown up to 120 hpf, following which they were fixed in 4% PFA overnight and then mounted in 100% glycerol. The tail lengths of embryos were measured taking the anal region as starting reference point and the end of the fin fold as the ending point of measurement.
smiles,measurement,setting,value
O=P(O)(O)C(O)(Cn1ccnc1)P(=O)(O)O [Zoledronate],DNA repair capacity (γH2AX foci),[1],does not enhance the DNA repair capacity
same,regeneration of the caudal fin at 120 hpf,"[2]; 1Gy irradiation, Zol 1 μM, FIG. 6",enhances tail regeneration
same,regeneration of the caudal fin at 120 hpf,[2]; 1 and 3 Gy irradiation (data not shown),same outcome
same,regeneration of the caudal fin at 120 hpf,"[2]; 5 Gy irradiation, Zol 1 μM, n=15/group",enhances tail regeneration
same,regeneration of the caudal fin at 120 hpf,"[2]; 5 Gy irradiation, Zol 1 μM, n=15/group, listed as Zol",rescued
